Source: publication PMC4620497 (Scientific Reports, 2015)

Columns and labels:
CAMK4 = target: T1, CAMK4 (Homo sapiens, UniProt Q16566); set-up: method as in earlier work; conditions: Table S1; cited from earlier work
T1 construct: purchased DiscoveRx KINOMEscan (Ambit Biosciences)
T1 sequence (Q16566 1-473): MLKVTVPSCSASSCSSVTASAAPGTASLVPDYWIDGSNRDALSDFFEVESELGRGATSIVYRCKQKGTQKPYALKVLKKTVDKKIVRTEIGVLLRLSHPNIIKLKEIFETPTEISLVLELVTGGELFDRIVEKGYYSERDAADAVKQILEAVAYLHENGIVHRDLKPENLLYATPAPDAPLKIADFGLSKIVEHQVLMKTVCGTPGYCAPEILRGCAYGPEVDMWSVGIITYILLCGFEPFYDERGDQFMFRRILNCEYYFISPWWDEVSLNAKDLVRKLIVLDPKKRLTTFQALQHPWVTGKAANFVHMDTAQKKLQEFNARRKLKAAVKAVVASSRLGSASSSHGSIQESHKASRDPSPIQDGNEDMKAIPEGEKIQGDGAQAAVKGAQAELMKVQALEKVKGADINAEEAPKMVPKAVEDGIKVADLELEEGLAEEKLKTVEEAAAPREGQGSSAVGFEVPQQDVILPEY

FLT3 = conditions: previously identified FLT3 inhibitor; read-out: IC50 against FLT3; cited from earlier work
CIT = target: T2, CIT (Homo sapiens, UniProt O14578); assay: KINOMEscan panel screen; type: binding; conditions: read-out: Percent Control(%)
T2 construct: purchased DiscoveRx KINOMEscan (Ambit Biosciences)
T2 sequence (O14578 whole entry): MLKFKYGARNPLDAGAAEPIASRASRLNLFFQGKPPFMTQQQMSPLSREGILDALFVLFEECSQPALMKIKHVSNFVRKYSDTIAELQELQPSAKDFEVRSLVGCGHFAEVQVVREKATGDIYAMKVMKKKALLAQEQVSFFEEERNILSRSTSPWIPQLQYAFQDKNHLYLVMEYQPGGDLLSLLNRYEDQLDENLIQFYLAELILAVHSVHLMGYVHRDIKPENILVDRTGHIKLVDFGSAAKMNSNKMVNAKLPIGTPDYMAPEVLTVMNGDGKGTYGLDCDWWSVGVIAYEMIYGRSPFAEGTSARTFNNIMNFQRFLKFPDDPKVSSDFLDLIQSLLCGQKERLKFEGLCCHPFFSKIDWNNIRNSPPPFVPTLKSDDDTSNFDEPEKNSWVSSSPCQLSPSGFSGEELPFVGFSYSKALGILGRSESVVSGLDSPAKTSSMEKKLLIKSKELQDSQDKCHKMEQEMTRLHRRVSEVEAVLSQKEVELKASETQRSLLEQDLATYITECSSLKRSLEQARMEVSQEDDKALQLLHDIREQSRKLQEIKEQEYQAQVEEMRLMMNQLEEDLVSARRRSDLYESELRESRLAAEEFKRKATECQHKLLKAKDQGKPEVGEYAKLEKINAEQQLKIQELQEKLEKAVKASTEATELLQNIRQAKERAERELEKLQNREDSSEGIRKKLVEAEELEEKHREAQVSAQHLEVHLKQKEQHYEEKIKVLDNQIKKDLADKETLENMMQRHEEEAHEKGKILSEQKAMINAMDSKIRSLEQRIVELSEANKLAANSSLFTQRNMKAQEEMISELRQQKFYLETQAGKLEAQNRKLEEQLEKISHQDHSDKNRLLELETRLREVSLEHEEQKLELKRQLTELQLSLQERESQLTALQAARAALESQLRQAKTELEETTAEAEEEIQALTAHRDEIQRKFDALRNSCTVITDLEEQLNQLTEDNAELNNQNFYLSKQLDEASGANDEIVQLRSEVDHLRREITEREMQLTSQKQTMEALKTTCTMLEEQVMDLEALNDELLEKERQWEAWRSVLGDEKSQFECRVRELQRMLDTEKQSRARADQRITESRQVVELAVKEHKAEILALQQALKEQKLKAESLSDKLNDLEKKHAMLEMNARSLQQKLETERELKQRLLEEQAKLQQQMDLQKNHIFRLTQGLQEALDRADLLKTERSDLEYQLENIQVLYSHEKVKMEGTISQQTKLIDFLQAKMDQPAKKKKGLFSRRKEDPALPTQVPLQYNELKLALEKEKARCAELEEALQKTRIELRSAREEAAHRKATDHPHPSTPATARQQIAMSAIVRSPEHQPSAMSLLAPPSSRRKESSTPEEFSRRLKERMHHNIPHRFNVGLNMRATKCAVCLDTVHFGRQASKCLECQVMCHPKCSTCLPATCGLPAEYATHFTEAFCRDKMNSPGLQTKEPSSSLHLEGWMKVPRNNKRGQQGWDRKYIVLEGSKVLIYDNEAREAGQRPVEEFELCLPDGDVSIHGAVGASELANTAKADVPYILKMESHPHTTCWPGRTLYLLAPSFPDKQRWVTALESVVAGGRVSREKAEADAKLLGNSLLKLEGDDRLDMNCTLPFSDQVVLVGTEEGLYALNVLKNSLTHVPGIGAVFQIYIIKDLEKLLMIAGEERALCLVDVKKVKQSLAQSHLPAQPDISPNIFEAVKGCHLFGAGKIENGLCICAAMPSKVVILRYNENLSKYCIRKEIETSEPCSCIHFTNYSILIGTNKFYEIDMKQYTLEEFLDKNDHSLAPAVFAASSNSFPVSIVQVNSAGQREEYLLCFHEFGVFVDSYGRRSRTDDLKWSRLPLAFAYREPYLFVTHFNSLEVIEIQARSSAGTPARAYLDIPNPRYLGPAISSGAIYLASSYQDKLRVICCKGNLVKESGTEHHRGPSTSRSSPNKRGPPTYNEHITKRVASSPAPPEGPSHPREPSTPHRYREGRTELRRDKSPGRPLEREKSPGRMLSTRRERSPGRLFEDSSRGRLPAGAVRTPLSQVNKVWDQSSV

MYO3A = target: T3, MYO3A (Homo sapiens, UniProt Q8NEV4); assay: KINOMEscan panel screen; type: binding; conditions: read-out: Percent Control(%)
T3 construct: purchased DiscoveRx KINOMEscan (Ambit Biosciences)
T3 sequence (Q8NEV4 whole entry): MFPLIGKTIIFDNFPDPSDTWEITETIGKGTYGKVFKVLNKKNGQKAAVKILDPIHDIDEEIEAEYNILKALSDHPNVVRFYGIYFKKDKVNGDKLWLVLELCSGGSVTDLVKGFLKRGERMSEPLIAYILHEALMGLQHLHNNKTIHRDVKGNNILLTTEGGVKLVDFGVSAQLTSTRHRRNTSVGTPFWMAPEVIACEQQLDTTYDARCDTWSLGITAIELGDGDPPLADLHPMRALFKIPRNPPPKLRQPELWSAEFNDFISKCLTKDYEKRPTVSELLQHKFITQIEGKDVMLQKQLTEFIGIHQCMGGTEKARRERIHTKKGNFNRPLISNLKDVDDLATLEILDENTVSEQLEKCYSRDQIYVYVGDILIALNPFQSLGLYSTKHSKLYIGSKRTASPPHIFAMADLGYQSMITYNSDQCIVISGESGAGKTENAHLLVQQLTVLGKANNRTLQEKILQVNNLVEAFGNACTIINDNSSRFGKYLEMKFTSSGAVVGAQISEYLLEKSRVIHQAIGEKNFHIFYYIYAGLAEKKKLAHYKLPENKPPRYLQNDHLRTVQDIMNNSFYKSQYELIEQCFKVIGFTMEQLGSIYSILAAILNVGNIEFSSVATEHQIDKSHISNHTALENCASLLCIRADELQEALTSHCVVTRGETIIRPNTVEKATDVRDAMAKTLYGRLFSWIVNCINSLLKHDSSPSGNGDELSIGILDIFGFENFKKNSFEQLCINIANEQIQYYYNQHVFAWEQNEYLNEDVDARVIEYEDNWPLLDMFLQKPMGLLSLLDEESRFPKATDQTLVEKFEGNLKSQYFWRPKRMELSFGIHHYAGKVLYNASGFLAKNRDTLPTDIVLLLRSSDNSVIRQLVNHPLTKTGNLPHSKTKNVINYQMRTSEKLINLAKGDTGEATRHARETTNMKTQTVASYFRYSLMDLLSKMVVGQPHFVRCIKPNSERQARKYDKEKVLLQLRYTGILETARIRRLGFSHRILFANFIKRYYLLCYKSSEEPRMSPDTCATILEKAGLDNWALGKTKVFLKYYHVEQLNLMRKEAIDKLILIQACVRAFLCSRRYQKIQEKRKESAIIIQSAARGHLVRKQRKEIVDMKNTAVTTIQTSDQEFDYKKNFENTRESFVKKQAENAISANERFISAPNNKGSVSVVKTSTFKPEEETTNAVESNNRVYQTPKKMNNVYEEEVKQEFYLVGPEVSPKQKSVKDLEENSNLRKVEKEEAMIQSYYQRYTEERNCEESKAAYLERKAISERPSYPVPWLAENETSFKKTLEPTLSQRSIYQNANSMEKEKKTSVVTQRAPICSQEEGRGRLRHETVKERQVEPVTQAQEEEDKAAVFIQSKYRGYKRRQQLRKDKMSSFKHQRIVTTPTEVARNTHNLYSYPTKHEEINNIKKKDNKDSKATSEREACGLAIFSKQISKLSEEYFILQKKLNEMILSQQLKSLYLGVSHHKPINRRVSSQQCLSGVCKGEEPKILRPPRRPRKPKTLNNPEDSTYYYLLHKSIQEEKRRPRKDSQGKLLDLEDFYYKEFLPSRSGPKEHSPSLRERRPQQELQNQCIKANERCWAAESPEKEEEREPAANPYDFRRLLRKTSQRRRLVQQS

HCK = target: T4, HCK (Homo sapiens, UniProt P08631); assay: KINOMEscan panel screen; type: binding; conditions: read-out: Percent Control(%)
T4 construct: purchased DiscoveRx KINOMEscan (Ambit Biosciences)
T4 sequence (P08631 whole entry): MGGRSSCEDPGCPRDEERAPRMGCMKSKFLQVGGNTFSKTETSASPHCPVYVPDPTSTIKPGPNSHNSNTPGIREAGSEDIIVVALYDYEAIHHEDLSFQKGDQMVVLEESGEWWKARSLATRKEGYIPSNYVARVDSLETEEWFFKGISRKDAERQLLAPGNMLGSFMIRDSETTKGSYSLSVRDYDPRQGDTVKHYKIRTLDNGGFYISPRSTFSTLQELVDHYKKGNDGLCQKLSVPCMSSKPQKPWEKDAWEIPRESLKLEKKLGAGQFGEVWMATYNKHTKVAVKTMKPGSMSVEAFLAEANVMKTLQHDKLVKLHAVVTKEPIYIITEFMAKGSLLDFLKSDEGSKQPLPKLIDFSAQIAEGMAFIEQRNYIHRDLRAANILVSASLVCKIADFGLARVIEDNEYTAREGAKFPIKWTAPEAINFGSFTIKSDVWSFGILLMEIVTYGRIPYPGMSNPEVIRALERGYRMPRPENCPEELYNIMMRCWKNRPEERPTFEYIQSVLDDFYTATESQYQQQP

LKB1 = target: T5, LKB1 (Homo sapiens, UniProt Q15831); assay: KINOMEscan panel screen; type: binding; conditions: read-out: Percent Control(%)
T5 construct: purchased DiscoveRx KINOMEscan (Ambit Biosciences)

PIP5K1A = target: T6, PIP5K1A (Homo sapiens, UniProt Q99755); assay: KINOMEscan panel screen; type: binding; conditions: read-out: Percent Control(%)
T6 construct: purchased DiscoveRx KINOMEscan (Ambit Biosciences)

CSK = target: T7, CSK (Homo sapiens, UniProt P41240); assay: KINOMEscan panel screen; type: binding; conditions: read-out: Percent Control(%)
T7 construct: purchased DiscoveRx KINOMEscan (Ambit Biosciences)

CDKL3 = target: T8, CDKL3 (Homo sapiens, UniProt Q8IVW4); assay: KINOMEscan panel screen; type: binding; conditions: read-out: Percent Control(%)
T8 construct: purchased DiscoveRx KINOMEscan (Ambit Biosciences)

[1] = target: T9, RSK2(Kin.Dom.1-N-terminal) (Homo sapiens, UniProt P51812); assay: KINOMEscan panel screen; type: binding; conditions: read-out: Percent Control(%)
T9 construct: RSK2(Kin.Dom.1-N-terminal); purchased DiscoveRx KINOMEscan (Ambit Biosciences)

ACVR2A = target: T10, ACVR2A (Homo sapiens, UniProt P27037); assay: KINOMEscan panel screen; type: binding; conditions: read-out: Percent Control(%)
T10 construct: purchased DiscoveRx KINOMEscan (Ambit Biosciences)

ICK = target: T11, ICK (Homo sapiens, UniProt Q9UPZ9); assay: KINOMEscan panel screen; type: binding; conditions: read-out: Percent Control(%)
T11 construct: purchased DiscoveRx KINOMEscan (Ambit Biosciences)

CAMKK1 = target: T12, CAMKK1 (Homo sapiens, UniProt Q8N5S9); assay: KINOMEscan panel screen; type: binding; conditions: read-out: Percent Control(%)
T12 construct: purchased DiscoveRx KINOMEscan (Ambit Biosciences)

PIM3 = target: T13, PIM3 (Homo sapiens, UniProt Q86V86); assay: KINOMEscan panel screen; type: binding; conditions: read-out: Percent Control(%)
T13 construct: purchased DiscoveRx KINOMEscan (Ambit Biosciences)

p38-gamma = target: T14, p38-gamma (Homo sapiens, UniProt P53778); assay: KINOMEscan panel screen; type: binding; conditions: read-out: Percent Control(%)
T14 construct: purchased DiscoveRx KINOMEscan (Ambit Biosciences)
T14 sequence (P53778 whole entry): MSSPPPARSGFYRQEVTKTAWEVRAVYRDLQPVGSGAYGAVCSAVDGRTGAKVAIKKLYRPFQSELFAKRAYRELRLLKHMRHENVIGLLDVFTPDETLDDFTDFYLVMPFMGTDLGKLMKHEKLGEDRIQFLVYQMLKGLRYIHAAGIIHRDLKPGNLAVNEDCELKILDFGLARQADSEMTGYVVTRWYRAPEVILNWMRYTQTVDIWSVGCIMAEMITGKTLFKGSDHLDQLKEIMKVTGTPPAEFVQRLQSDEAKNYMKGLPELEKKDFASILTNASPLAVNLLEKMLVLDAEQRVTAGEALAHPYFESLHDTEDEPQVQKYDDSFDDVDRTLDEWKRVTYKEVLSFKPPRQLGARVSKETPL

BUB1 = target: T15, BUB1 (Homo sapiens, UniProt O43683); assay: KINOMEscan panel screen; type: binding; conditions: read-out: Percent Control(%)
T15 construct: purchased DiscoveRx KINOMEscan (Ambit Biosciences)

LIMK1 = target: T16, LIMK1 (Homo sapiens, UniProt P53667); assay: KINOMEscan panel screen; type: binding; conditions: read-out: Percent Control(%)
T16 construct: purchased DiscoveRx KINOMEscan (Ambit Biosciences)

TNIK = target: T17, TNIK (Homo sapiens, UniProt Q9UKE5); assay: KINOMEscan panel screen; type: binding; conditions: read-out: Percent Control(%)
T17 construct: purchased DiscoveRx KINOMEscan (Ambit Biosciences)

[2] = test system: active β-catenin, NKD1, AXIN2 in MV4-11 tumors; assay: Wnt/β-catenin signaling in MV4-11 xenograft tumors (western blot, qPCR); type: in vivo, NOD-SCID mice; conditions: single oral dose 10 mg/kg
Description: Western blot assays and real-time qPCR assays were conducted on the harvested tumors.
Whole protein lysates of tumor samples were collected by the abrading of tumors in liquid nitrogen. […] Quantitative analysis of the protein level was performed with NIH image analysis software, ImageJ (normalized relative to the vehicle control).
Total RNA of cell samples and tumor samples was extracted using RNAsimple total RNA kit (TIANGEN) according to the manufacturer’s instructions. cDNA was generated using the iScript^TMcDNA Synthesis Kit (Bio-Rad), and the RT-PCR reactions were performed using SsoAdvanced SYBR Green Supermix (Bio-Rad). The reaction consisted of 40 cycles of denaturation at 95 °C for 5 s and annealing/extension for 30s at 60 °C.
The mice were assigned to 5 groups (n = 6 in each group). […] The mean values ± SD are shown. […] Representative images were shown.

CSNK2A1 = target: T18, CSNK2A1 (Homo sapiens, UniProt P68400); assay: KINOMEscan panel screen; type: binding; conditions: read-out: Percent Control(%)
T18 construct: purchased DiscoveRx KINOMEscan (Ambit Biosciences)

PDGFRB = target: T19, PDGFRB (Homo sapiens, UniProt P09619); assay: KINOMEscan panel screen; type: binding; conditions: read-out: Percent Control(%)
T19 construct: purchased DiscoveRx KINOMEscan (Ambit Biosciences)

RIOK1 = target: T20, RIOK1 (Homo sapiens, UniProt Q9BRS2); assay: KINOMEscan panel screen; type: binding; conditions: read-out: Percent Control(%)
T20 construct: purchased DiscoveRx KINOMEscan (Ambit Biosciences)

CAMK1D = target: T21, CAMK1D (Homo sapiens, UniProt Q8IU85); assay: KINOMEscan panel screen; type: binding; conditions: read-out: Percent Control(%)
T21 construct: purchased DiscoveRx KINOMEscan (Ambit Biosciences)
T21 sequence (Q8IU85 whole entry): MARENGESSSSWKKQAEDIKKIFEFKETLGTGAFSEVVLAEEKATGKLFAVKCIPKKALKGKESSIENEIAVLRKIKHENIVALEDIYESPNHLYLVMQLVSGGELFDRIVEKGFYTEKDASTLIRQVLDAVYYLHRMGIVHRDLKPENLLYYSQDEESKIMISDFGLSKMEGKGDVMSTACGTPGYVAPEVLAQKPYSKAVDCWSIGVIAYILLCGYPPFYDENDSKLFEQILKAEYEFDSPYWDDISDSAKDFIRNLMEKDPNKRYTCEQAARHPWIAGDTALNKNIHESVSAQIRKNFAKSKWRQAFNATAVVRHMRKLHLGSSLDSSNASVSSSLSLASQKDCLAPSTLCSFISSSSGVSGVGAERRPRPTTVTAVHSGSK

IKK-alpha = target: T22, IKK-alpha (Homo sapiens, UniProt O15111); assay: KINOMEscan panel screen; type: binding; conditions: read-out: Percent Control(%)
T22 construct: purchased DiscoveRx KINOMEscan (Ambit Biosciences)

SIK2 = target: T23, SIK2 (Homo sapiens, UniProt Q9H0K1); assay: KINOMEscan panel screen; type: binding; conditions: read-out: Percent Control(%)
T23 construct: purchased DiscoveRx KINOMEscan (Ambit Biosciences)

HIPK3 = target: T24, HIPK3 (Homo sapiens, UniProt Q9H422); assay: KINOMEscan panel screen; type: binding; conditions: read-out: Percent Control(%)
T24 construct: purchased DiscoveRx KINOMEscan (Ambit Biosciences)

PLK1 = target: T25, PLK1 (Homo sapiens, UniProt P53350); assay: KINOMEscan panel screen; type: binding; conditions: read-out: Percent Control(%)
T25 construct: purchased DiscoveRx KINOMEscan (Ambit Biosciences)

PIK3CA(Q546K) = target: T26, PIK3CA(Q546K) (Homo sapiens, UniProt P42336, Q546K); assay: KINOMEscan panel screen; type: binding; conditions: read-out: Percent Control(%)
T26 construct: purchased DiscoveRx KINOMEscan (Ambit Biosciences)

ULK3 = target: T27, ULK3 (Homo sapiens, UniProt Q6PHR2); assay: KINOMEscan panel screen; type: binding; conditions: read-out: Percent Control(%)
T27 construct: purchased DiscoveRx KINOMEscan (Ambit Biosciences)

LZK = target: T28, LZK (Homo sapiens, UniProt O43283); assay: KINOMEscan panel screen; type: binding; conditions: read-out: Percent Control(%)
T28 construct: purchased DiscoveRx KINOMEscan (Ambit Biosciences)

[3] = target: T29, JAK2(JH1domain-catalytic) (Homo sapiens, UniProt O60674); assay: KINOMEscan panel screen; type: binding; conditions: read-out: Percent Control(%)
T29 construct: JAK2(JH1domain-catalytic); purchased DiscoveRx KINOMEscan (Ambit Biosciences)

PIM2 = target: T30, PIM2 (Homo sapiens, UniProt Q9P1W9); assay: KINOMEscan panel screen; type: binding; conditions: read-out: Percent Control(%)
T30 construct: purchased DiscoveRx KINOMEscan (Ambit Biosciences)

IRAK1 = target: T31, IRAK1 (Homo sapiens, UniProt P51617); assay: KINOMEscan panel screen; type: binding; conditions: read-out: Percent Control(%)
T31 construct: purchased DiscoveRx KINOMEscan (Ambit Biosciences)

FLT3(ITD) = assay: KINOMEscan panel screen; type: binding, human; conditions: 10 μM

For O=C(Nc1ccc(Oc2ncnc3[nH]ncc23)cc1)Nc1ccc(Cl)c(C(F)(F)F)c1 [Compound 1, 1-(4-(1H-pyrazolo[3,4-d]pyrimidin-4-yloxy)phenyl)-3-(4-chloro-3-(trifluoromethyl)phenyl)urea], the IC50 (CAMK4) is given as greater than 10000 nM and the IC50 (FLT3) is given as 39 nM.

CC(C)(C)c1cc(NC(=O)Nc2ccc(Oc3ncnc4[nH]ncc34)c(F)c2)no1 [SKLB-677, 1-(4-(1H-pyrazolo[3,4-d]pyrimidin-4-yloxy)-3-fluorophenyl)-3-(5-tert-butylisoxazol-3-yl)urea] showed a remaining binding at 10 µM (CIT) of 16%, a remaining binding at 10 µM (MYO3A) of 11% and a remaining binding at 10 µM (HCK) of 0.5%. The remaining binding at 10 µM (LKB1) was 96%, the remaining binding at 10 µM (PIP5K1A) was 22% and the remaining binding at 10 µM (CSK) was 76%. It also gave a remaining binding at 10 µM (CDKL3) of 0.75%, a remaining binding at 10 µM [1] of 35% and a remaining binding at 10 µM (ACVR2A) of 100%. For the same compound, the remaining binding at 10 µM (ICK) was 42%, the remaining binding at 10 µM (CAMKK1) was 4.4% and the remaining binding at 10 µM (PIM3) was 40%. It also gave a remaining binding at 10 µM (p38-gamma) of 3.7%, a remaining binding at 10 µM (BUB1) of 66% and a remaining binding at 10 µM (LIMK1) of 25%. The remaining binding at 10 µM (TNIK) was 5.2%, the “mRNA level of NKD1 and AXIN2 in tumors” value [2] was “down-regulated” and the “protein levels of active β-catenin and NKD1 in tumors” value [2] was “induced the reduction”. The remaining binding at 10 µM (CSNK2A1) was 100%, the remaining binding at 10 µM (PDGFRB) was 0% and the remaining binding at 10 µM (RIOK1) was 89%. The remaining binding at 10 µM (CAMK1D) was 35%, the remaining binding at 10 µM (IKK-alpha) was 75% and the remaining binding at 10 µM (SIK2) was 69%. It also gave a remaining binding at 10 µM (HIPK3) of 1.2%, a remaining binding at 10 µM (PLK1) of 35% and a remaining binding at 10 µM (PIK3CA(Q546K)) of 100%. For the same compound, the remaining binding at 10 µM (ULK3) was 51%, the remaining binding at 10 µM (LZK) was 93% and the remaining binding at 10 µM [3] was 31%. The remaining binding at 10 µM (PIM2) was 37%, the remaining binding at 10 µM (IRAK1) was 2% and the “Percent Control(%)” value (FLT3(ITD)) was 0.05%.
